# Assay results published in PubChem BioAssay (NCI).
#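 Dose response: 5 concentrations. Exposure: 48 h. Format: 96-well plates. Endpoint: linear interpolation; highest concentration if not reached. TGI is the concentration that stops growth completely.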
# Columns and labels:
# Experiment in all cases: DTP human tumour cell line panel, 48 h
# [1] = system: OVCAR-8 ovarian
# [2] = system: ACHN renal
# [3] = system: SF-539 CNS
# [4] = system: CAKI-1 renal
# [5] = system: OVCAR-3 ovarian
# [6] = system: UACC-257 melanoma
# [7] = system: SK-OV-3 ovarian
# [8] = system: K-562 leukemia
# [9] = system: SF-295 CNS
# [10] = system: CCRF-CEM leukemia
# [11] = system: BT-549 breast
# [12] = system: UO-31 renal
# [13] = system: HOP-92 NSCLC
# [14] = system: NCI-H226 lung
# [15] = system: SNB-75 CNS
# [16] = system: NCI-H522 lung
# [17] = system: MDA-MB-231 breast
# [18] = system: OVCAR-4 ovarian
# [19] = system: PC-3 prostate
# [20] = system: NCI-H23 lung
# [21] = system: A549 NSCLC
# [22] = system: SW-620 colon
# [23] = system: A498 renal
# [24] = system: HOP-62 NSCLC
# [25] = system: U251 CNS
# [26] = system: NCI-H460 lung
# [27] = system: RXF 393 renal
# [28] = system: HCT-15 colon
# [29] = system: HCT-116 colon
# [30] = system: 786-0 renal
# [31] = system: HCC-2998 colon
# [32] = system: SNB-19 CNS
# [33] = system: M14 melanoma
# [34] = system: OVCAR-5 ovarian
# [35] = system: SN12C renal
# [36] = system: SR leukemia
# [37] = system: MCF7 breast
# [38] = system: T-47D breast
# [39] = system: COLO 205 colon
# [40] = system: NCI/ADR-RES ovarian
# [41] = system: MALME-3M melanoma
# [42] = system: TK-10 renal
# [43] = system: MDA-MB-435
# [44] = system: SK-MEL-28 melanoma
# [45] = system: KM12 colon
# [46] = system: DU-145 prostate
# [47] = system: IGROV1 ovarian
# [48] = system: HT29 colon
# [49] = system: UACC-62 melanoma
# [50] = system: LOX IMVI melanoma
# [51] = system: MOLT-4 leukemia
# [52] = system: SK-MEL-2 melanoma
# [53] = system: MDA-N
# [54] = system: SF-268 CNS
# [55] = system: EKVX NSCLC
structure (smiles),measurement,setting,value
CC(C)(C)C1CCC2c3c([nH]c4ccccc34)C3C(=O)N(c4cccc([N+](=O)[O-])c4)C(=O)C3C2C1 (stereo not given),TGI,[1],> 100 µM
same,TGI,[2],> 100 µM
same,TGI,[3],> 100 µM
same,TGI,[4],54.2 µM
same,TGI,[5],> 100 µM
same,TGI,[6],61.6 µM
same,TGI,[7],> 100 µM
same,TGI,[8],> 100 µM
same,TGI,[9],> 100 µM
same,TGI,[10],> 100 µM
same,TGI,[11],40 µM
same,TGI,[12],> 100 µM
same,TGI,[13],> 100 µM
same,TGI,[14],53.1 µM
same,TGI,[15],> 100 µM
same,TGI,[16],48.8 µM
same,TGI,[17],92.3 µM
same,TGI,[18],> 100 µM
same,TGI,[19],> 100 µM
same,TGI,[20],> 100 µM
same,TGI,[21],> 100 µM
same,TGI,[22],> 100 µM
same,TGI,[23],> 100 µM
same,TGI,[24],99.4 µM
same,TGI,[25],> 100 µM
same,TGI,[26],> 100 µM
same,TGI,[27],> 100 µM
same,TGI,[28],> 100 µM
same,TGI,[29],40.4 µM
same,TGI,[30],43.7 µM
same,TGI,[31],63.4 µM
same,TGI,[32],> 100 µM
same,TGI,[33],> 100 µM
same,TGI,[34],> 100 µM
same,TGI,[35],25.5 µM
same,TGI,[36],> 100 µM
same,TGI,[37],> 100 µM
same,TGI,[38],> 100 µM
same,TGI,[39],73.6 µM
same,TGI,[40],74.2 µM
same,TGI,[41],59.7 µM
same,TGI,[42],> 100 µM
same,TGI,[43],81.5 µM
same,TGI,[44],> 100 µM
same,TGI,[45],25.3 µM
same,TGI,[46],> 100 µM
same,TGI,[47],> 100 µM
same,TGI,[48],> 100 µM
same,TGI,[49],> 100 µM
same,TGI,[50],49.8 µM
same,TGI,[51],> 100 µM
same,TGI,[52],64.1 µM
same,TGI,[53],45.7 µM
same,TGI,[54],77.6 µM
same,TGI,[55],66.8 µM
